Assay results as given in PubChem BioAssay AID1963977 (Molecular Pharmacology Branch, DTP, NCI, 2024).

Test system: 624824-186-R-J3-PDC multicell spheroids, viability
Test: Anticancer human tumor 624824-186-R-J3-PDC patient-derived colon adenocarcinoma cell line growth inhibition [PI3K]
Details: for IC50: curve of first compound; for viability, T/C: stronger effect = lower value; active means viability on the fitted dose curve at most 10% of control; inactive means the rest
Source text: Combinatorial screen of targeted agents with the PI3K inhibitors inavolisib, alpelisib, duvelisib, and copanlisib in multi-cell type tumor spheroids
A high-throughput screen of multi-cell type tumor spheroids was designed to identify active combinations of targeted small molecules and PI3K pathway inhibitors. Complex spheroids include a stromal component modeled by human endothelial cells (HUVEC) and fibroblasts modeled by human mesenchymal stem cells (MSCs). The concentration ranges selected for each drug and investigational agent were based upon clinically achievable concentrations if the clinical Cmax of the agent was known.
Compounds. The drugs and investigational agents: inavolisib (NSC800729), alpelisib (NSC765974), duvelisib (NSC772469), copanlisib (NSC816437), ipatasertib (NSC767898), afuresertib (NSC778305), talazoparib (NSC767125), sapanisertib (NSC764658), selumetinib (NSC741078), tovorafenib (DAY101, NSC766906), vemurafenib (NSC761431), ravoxertinib (NSC781343), sotorasib (NSC818433), MRTX1133 (NSC 836407), abemaciclib (NSC 768073), palbociclib (NSC758247), venetoclax (NSC 766270), SY5609 (NSC837396), enzalutamide (NSC755605), and darolutamide (NSC825331), were obtained from the National Cancer Institute (NCI) Developmental Therapeutics Program Chemical Repository. The FDA-approved anticancer drug set is available from the NCI Developmental Therapeutics Program. […] The stock solutions were prepared in dimethyl sulfoxide (DMSO, Sigma-Aldrich, St. Louis, MO, cat. D2650) at 800-fold the tested concentration and stored at -70 degrees C prior to their use. All drugs and investigational agents were tested over a range starting from a high concentration at or near the clinical Cmax and decreasing in half-log increments. If the clinical Cmax for an agent had not been determined, the highest concentration tested was 10 microM.
Cell Culture. All cells were maintained in an incubator at 37 degrees C and 5% CO2 with 95% humidity. The PDC lines were cultured according to standard operating procedures established by the NCI PDMR (https://pdmr.cancer.gov/sops/default.htm). All PDCs were thawed and cultured in Matrigel-coated flasks prepared with a working solution of 1X Ham's F-12 nutrient mix, without supplementation (Invitrogen, Waltham, MA, cat. 11765054), 100 U/mL penicillin-streptomycin (Invitrogen, cat. 15140122), and 2.5% Matrigel (Corning Inc., Corning, NY, cat. 354248) for the first three passages. The 354836-022-R-J1-PDC, 475296-252-R-J1-PDC, and 997726-040-R-J2-PDC lines were cultured in 6A media, which includes advanced DMEM/F-12 (Thermo Fisher Scientific, cat. 12634028), 10 mM HEPES (Thermo Fisher Scientific, cat. 15630080), 1X GlutaMAX supplement (Thermo Fisher Scientific, cat. 35050061), 0.1 mg/mL primocin (InvivoGen, San Diego, CA, cat. ant-pm-2), 10% defined fetal bovine serum, heat inactivated (HyClone Laboratories Inc., Logan, UT, cat. SH30070.03HI), 50% L-WRN conditioned media (ATCC, cat. CRL-3276), 1.25 mM N-Acetyl-L-cysteine (Sigma-Aldrich, cat. A9165), 10 mM nicotinamide (Sigma-Aldrich, cat. N0636), 1X B-27 supplement (Thermo Fisher Scientific, cat. 17504044), 1X N-2 supplement (Thermo Fisher Scientific, cat. 17502048), and 10 microM Y-27632 dihydrochloride (Tocris Bioscience, Bristol, United Kingdom, cat. 1254). The 624824-186-R-J2-PDC line was cultured in 6C/Colon 1B media, which includes all 6A media components plus 50 ng/mL human EGF recombinant protein (Thermo Fisher Scientific, cat. PHG0311). […]

[1] = second compound 0.00316 µM, first compound 0.0316 µM
[2] = second compound 0.00316 µM, first compound 0.1 µM
[3] = second compound 0.00316 µM, first compound 0.316 µM
[4] = second compound 0.00316 µM, first compound 1 µM
[5] = second compound 0.00316 µM, first compound 3.16 µM
[6] = second compound 0.00316 µM, first compound 10 µM
[7] = second compound 0.01 µM, first compound 0.0316 µM
[8] = second compound 0.01 µM, first compound 0.1 µM
[9] = second compound 0.01 µM, first compound 0.316 µM
[10] = second compound 0.01 µM, first compound 1 µM
[11] = second compound 0.01 µM, first compound 3.16 µM
[12] = second compound 0.01 µM, first compound 10 µM
[13] = second compound 0.0316 µM, first compound 0.0316 µM
[14] = second compound 0.0316 µM, first compound 0.1 µM
[15] = second compound 0.0316 µM, first compound 0.316 µM
[16] = second compound 0.0316 µM, first compound 1 µM
[17] = second compound 0.0316 µM, first compound 3.16 µM
[18] = second compound 0.0316 µM, first compound 10 µM
[19] = second compound 0.1 µM, first compound 0.0316 µM
[20] = second compound 0.1 µM, first compound 0.1 µM
[21] = second compound 0.1 µM, first compound 0.316 µM
[22] = second compound 0.1 µM, first compound 1 µM
[23] = second compound 0.1 µM, first compound 3.16 µM
[24] = second compound 0.1 µM, first compound 10 µM
[25] = second compound 0.316 µM, first compound 0.0316 µM
[26] = second compound 0.316 µM, first compound 0.1 µM
[27] = second compound 0.316 µM, first compound 0.316 µM
[28] = second compound 0.316 µM, first compound 1 µM
[29] = second compound 0.316 µM, first compound 3.16 µM
[30] = second compound 0.316 µM, first compound 10 µM
[31] = second compound 1 µM, first compound 0.0316 µM
[32] = second compound 1 µM, first compound 0.1 µM
[33] = second compound 1 µM, first compound 0.316 µM
[34] = second compound 1 µM, first compound 1 µM
[35] = second compound 1 µM, first compound 3.16 µM
[36] = second compound 1 µM, first compound 10 µM
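Further: spheroids exposed to agents for seven days before luminescence read.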
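Wherever viability, T/C is given: luminescent signal used as a stand-in for spheroid viability; percent viability relative to DMSO vehicle control wells taken as 100%.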

CC1(C)CCC(CN2CCN(c3ccc(C(=O)NS(=O)(=O)c4ccc(NCC5CCOCC5)c([N+](=O)[O-])c4)c(Oc4cnc5[nH]ccc5c4)c3)CC2)=C(c2ccc(Cl)cc2)C1 + CC(Nc1ccc2c(c1)OCCn1cc(N3C(=O)OCC3C(F)F)nc1-2)C(N)=O
9.64 µM: IC50 (second compound 0.0316 µM)
9.37 µM: IC50 (second compound 0.1 µM)
inactive: viability, T/C [1] 104% | viability, T/C [2] 88.6% | viability, T/C [3] 102% | viability, T/C [4] 90.9% | viability, T/C [5] 112% | viability, T/C [6] 47.3% | viability, T/C [7] 105% | viability, T/C [8] 92% | viability, T/C [9] 99.5% | viability, T/C [10] 106% | viability, T/C [11] 114% | viability, T/C [12] 43.2% | viability, T/C [13] 100% | viability, T/C [14] 105% | viability, T/C [15] 89.4% | viability, T/C [16] 99% | viability, T/C [17] 117% | viability, T/C [18] 48.3% | viability, T/C [19] 88.7% | viability, T/C [20] 99.9% | viability, T/C [21] 90.9% | viability, T/C [22] 109% | viability, T/C [23] 102% | viability, T/C [24] 47.1% | viability, T/C [25] 98.5% | viability, T/C [26] 95.3% | viability, T/C [27] 99.2% | viability, T/C [28] 86.3% | viability, T/C [29] 89% | viability, T/C [30] 53.6% | viability, T/C [31] 82.7% | viability, T/C [32] 85.5% | viability, T/C [33] 85.7% | viability, T/C [34] 81.4% | viability, T/C [35] 70.2% | viability, T/C [36] 48.2%
> 10 µM: IC50 (second compound 0.316 µM)
8.77 µM: IC50 (second compound 0.01 µM)
9.41 µM: IC50 (second compound 0.00316 µM)
9.12 µM: IC50 (second compound 1 µM)

CCCS(=O)(=O)Nc1ccc(F)c(C(=O)c2c[nH]c3ncc(-c4ccc(Cl)cc4)cc23)c1F + CC(Nc1ccc2c(c1)OCCn1cc(N3C(=O)OCC3C(F)F)nc1-2)C(N)=O
5 µM: IC50 (second compound 0.00316 µM)
0.353 µM: IC50 (second compound 1 µM)
inactive: viability, T/C [1] 93.5% | viability, T/C [2] 89.6% | viability, T/C [3] 98.9% | viability, T/C [4] 88% | viability, T/C [5] 71.9% | viability, T/C [6] 17.3% | viability, T/C [7] 100% | viability, T/C [8] 94.1% | viability, T/C [9] 86.9% | viability, T/C [10] 74.4% | viability, T/C [11] 67.9% | viability, T/C [12] 12.9% | viability, T/C [13] 103% | viability, T/C [14] 92.8% | viability, T/C [15] 83.4% | viability, T/C [16] 73.7% | viability, T/C [17] 55.6% | viability, T/C [18] 13.9% | viability, T/C [19] 99% | viability, T/C [20] 86.1% | viability, T/C [21] 76.8% | viability, T/C [22] 48.6% | viability, T/C [23] 40.9% | viability, T/C [24] 14.1% | viability, T/C [25] 95.2% | viability, T/C [26] 87.7% | viability, T/C [27] 56.7% | viability, T/C [28] 41.8% | viability, T/C [29] 30.6% | viability, T/C [30] 13.3% | viability, T/C [31] 77.7% | viability, T/C [32] 69.5% | viability, T/C [33] 44.4% | viability, T/C [34] 38.1% | viability, T/C [35] 32.3% | viability, T/C [36] 11.6%
0.637 µM: IC50 (second compound 0.316 µM)
3.38 µM: IC50 (second compound 0.0316 µM)
1.39 µM: IC50 (second compound 0.1 µM)
4.15 µM: IC50 (second compound 0.01 µM)
